Target: PDE5A1 (Homo sapiens, UniProt O76074)
Experiment: cGMP hydrolysis by purified PDE5A1, cGMP Lumit bioluminescent readout
Type: biochemical

- IC50: 3.8 µM
Structure (SMILES): CC(C)Cn1c(=O)n(C)c(=O)c2[nH]cnc21 [IBMX]
